{"source": "paper PMC9578445", "about": "“Association of respiratory failure with inhibition of NaV1.6 in the phrenic nerve” (Channels, 2022)", "key": {"[1]": {"system": "rat diaphragm with the phrenic nerve attached", "test": "Rat hemisected diaphragm (HMD) assay, ex vivo", "excerpt": "Wistar derived male or female rats weighing 450 ± 50 g were euthanized by CO2 overexposure. The diaphragm with the phrenic nerve attached was removed and placed into a tissue recording chamber containing Krebs solution pH 7.4; (composition in g/L: NaCl 6.89, KCl 0.35, CaCl2 0.277, KH2PO4 0.163, MgSO4 · 7H2O 0.296, NaHCO3 2.1 and glucose 1.8). A piece of cotton was attached to the top of the phrenic nerve over the jaw electrodes. A second piece of cotton was attached to the tip of the tendinous tissue at the apex of the diaphragm preparation for attachment to an isometric transducer under 1 g tension. The rib of the diaphragm preparation was secured to the bottom of the jaw electrodes. […] The recording chamber was placed into a water bath kept at a temperature of 32°C by means of a suitable thermoregulator consisting of a thermostat and heating elements in addition to a water circulator.\nThe isometric transducer was connected to an amplifier and the tissue response was recorded on a two-pen recorder set at 1 volt. Field stimulation [S48 Stimulator (GRASS) set at 0.2 Hz (12 pulses per minute), 0.5 ms pulse duration at 70% of maximum voltage (about 3 to 5 volts)] delivered to two circle platinum electrodes (0.2 cm in diameter) was applied for transmural tissue stimulation. Each tissue preparation was washed three times in Krebs solution every 15 minutes for a 60 minute equilibration period and permitted to develop contractions. D-Tubocurarine (300 µM dissolved in 0.1 mL distilled water for a final 3 µM bath concentration) was added to establish an isometrically recorded control relaxation response ranging from one to two centimeters and corresponding to 60–70% of maximal relaxation. […] The tissue was then washed periodically until the contraction returns to the baseline value.\nSixty minutes later, the test compound was added (e.g. 30 mM in 0.01 mL vehicle of 100% DMSO, for final concentration of 30 µM test compound and 0.1% DMSO). A test compound recorded relaxation response of 50% or more (≥50%) within 5 minutes, relative to the 3 µM d-Tubocurarine control response, indicates neuromuscular blocking activity."}, "[2]": {"system": "anesthetized male CD rats", "test": "Rat Cardiovascular/Respiratory (CV/R) assay", "assay_type": "in vivo", "design": "∆ QRS Interval: unit not given here", "conditions": "rat, IV infusion", "method": "Male CD Rats were anesthetized with ketamine:xylazine (85 mg/kg:5 mg/kg, im, to effect). The left femoral artery and vein were cannulated for the measurement of blood pressure and the administration of test agent, respectively. The right femoral vein was cannulated for maintenance anesthetic infusion (ketamine:xylazine ~35 mg/kg/hr:1.5 mg/kg/hr, iv, to effect). Needle electrodes were placed subcutaneously at the right axillary and left inguinal areas to record lead II ECGs. When ECG intervals were required to determine effect on cardiac conduction a pacing/recording electrode catheter was advanced through the right jugular vein to pace the heart. ECG intervals were then measured at a fixed cardiac rate of 400 beats/minute to remove any variability of intrinsic heart rate on these parameters.\nTo determine the test agent-dependent effect on respiratory rate, a tracheotomy was also performed using a short length of polyethylene tubing containing a thermistor (AD Instruments). The change in temperature detected by the thermistor was used to calculate respiratory rate.\n(§1) For in vivo CVR and phrenic nerve activity studies, all raw signals were amplified via general purposed biological amplifier (filter settings DC – 3-5 KhZ) then digitized, calibrated and collected at a minimum of 500 Hz (1000 Hz for ECG and 2000 Hz for cardiac electrograms, and 10 KHz for phrenic nerve activity) using Notocord-HEM data acquisition and analysis software. The raw signal was filtered following acquisition with a bandpass filter set to 200–800 Hz). Vehicle (100% dimethylformamdide, DMF) or compound formulated in the vehicle was administered as a 30-minute IV infusion at 0.0167 μL/g body weight/min. Doses were selected to achieve unbound plasma concentrations in range of measured Nav1.6 IC50 values when infused at 0.0167uL/g body weight/min based on measured rat clearance, plasma protein binding and Nav1.6 IC50. Exposure in rats was determined in separate pharmacokinetics experiments where compounds were administered via IV dosing."}, "[3]": {"test": "Plasma exposure in phrenic nerve activity assay", "assay_type": "in vivo", "conditions": "rat; for concentration at 15 min / concentration at 30 min / concentration at 10 min: CD, plasma, intravenous; for concentration at 15 min / concentration at 30 min: 10 mg/kg", "excerpt": "as §1"}, "phrenic nerve": {"system": "phrenic nerve", "test": "Rat phrenic nerve firing assay", "conditions": "rat in vivo, measured at 30 minutes", "method": "To determine direct effects on phrenic nerve activity, male CD rats were anesthetized and instrumented as described above for the CV/R assay. In addition, an incision was made in the ventral neck area and the right phrenic nerve identified anatomically and isolated via blunt dissection. The phrenic nerve was placed over a high impedance bipolar hook electrode and the nerve covered with mineral oil to prevent desiccation. Animals were mechanically ventilated via a tracheotomy (~10 mL/kg, 40–70 breaths/min, titrated individually to stabilize phrenic activity) following neuromuscular block (pancuronium 0.5–1 mg/kg, iv) and bilateral vagotomy to better define test agent effects on phrenic nerve activity. Anesthesia was verified repeatedly following pancuronium administration by testing the BP/HR response to noxious stimuli. Spontaneous electrical activity was continuously recorded and then later rectified and averaged to calculate frequency, width, peak height of bursts, and magnitude. Magnitude of the activity was calculated by taking the absolute value of the raw signal and then averaging that signal over 50 ms increments. The resulting average signal was then converted to magnitude by subtracting the […] for each phrenic burst complex. The resulting magnitude values were then averaged over 1 minute increments to result in the graphs shown. Figure S1 in the Supplemental Information illustrates this analytical procedure.\nas §1"}, "[4]": {"test": "Plasma exposure in rat CV/R assay", "assay_type": "in vivo", "conditions": "rat, rat, IV infusion; for concentration at 15 min / concentration at 30 min: CD, plasma, iv", "excerpt": "as §1, with “Doses were selected to achieve unbound plasma concentrations in range of measured Nav1.6 IC50 values when infused at 0.0167uL/g body weight/min based on measured rat clearance, plasma protein binding and Nav1.6 IC50.” left out"}, "[5]": {"conditions": "male, 3 mg/kg, 3 mg/kg, read-out: Total [plasma]"}, "[6]": {"conditions": "male, 3 mg/kg, 3 mg/kg, read-out: Unbound [plasma]"}, "[7]": {"conditions": "30 mg/kg, 11 min, just prior to death"}}, "note": "Read-outs that look alike come from different tables or passages of the source."}
{"smiles": "COc1cc2c3cc1Oc1cc(ccc1O)C[C@@H]1c4c(cc(OC)c(O)c4Oc4ccc(cc4)C[C@@H]3N(C)CC2)CC[N+]1(C)C", "note": "[d-Tubocurarine, D-Tubocurarine, reference compound]", "values": [{"measurement": "relaxation, % of the maximal relaxation of the muscle", "setting": "[1]; 3 μM, termed the 100% inhibition level", "value": "60–70%"}]}
{"smiles": "O=S(=O)(Nc1ncns1)c1cc(F)c(NCC23CCCN2CCC3)cc1F", "note": "[SSCI-4]", "values": [{"measurement": "∆ Heart Rate", "setting": "[2]; 3 mg/kg, 15 min", "value": "−3.5", "unit": "bpm"}, {"measurement": "∆ Mean Arterial Pressure", "setting": "[2]; 3 mg/kg, 15 min", "value": 6.4, "unit": "mmHg"}, {"measurement": "∆ QRS Interval", "setting": "[2]; 3 mg/kg, 15 min", "value": 2.4}, {"measurement": "∆ respiratory rate", "setting": "[2]; 3 mg/kg, 15 min", "value": "−24.7", "unit": "%"}, {"measurement": "∆ Heart Rate", "setting": "[2]; 3 mg/kg, 30 min", "value": "−5.6", "unit": "bpm"}, {"measurement": "∆ Mean Arterial Pressure", "setting": "[2]; 3 mg/kg, 30 min", "value": 2.4, "unit": "mmHg"}, {"measurement": "∆ QRS Interval", "setting": "[2]; 3 mg/kg, 30 min", "value": 4.5}, {"measurement": "∆ respiratory rate", "setting": "[2]; 3 mg/kg, 30 min", "value": "−26.1", "unit": "%"}, {"measurement": "∆ Heart Rate", "setting": "[2]; 10 mg/kg, 15 min", "value": 6.6, "unit": "bpm"}, {"measurement": "∆ Mean Arterial Pressure", "setting": "[2]; 10 mg/kg, 15 min", "value": "−5.5", "unit": "mmHg"}, {"measurement": "∆ QRS Interval", "setting": "[2]; 10 mg/kg, 15 min", "value": 7.6}, {"measurement": "∆ respiratory rate", "setting": "[2]; 10 mg/kg, 15 min", "value": "−17.8", "unit": "%"}, {"measurement": "∆ respiratory rate", "setting": "[2]; 10 mg/kg, 25 min", "value": "−100", "unit": "%"}, {"measurement": "∆ respiratory rate", "setting": "[2]; 30 mg/kg, 11 min", "value": "−100", "unit": "%"}, {"measurement": "concentration at 15 min", "setting": "[3]; read-out: Total [plasma]", "value": "55.3 ± 5.5", "unit": "µM"}, {"measurement": "concentration at 15 min", "setting": "[3]; read-out: Unbound [plasma]", "value": "23.3 ± 2.61", "unit": "µM"}, {"measurement": "concentration at 30 min", "setting": "[3]; read-out: Total [plasma]", "value": 61.6, "unit": "µM"}, {"measurement": "concentration at 30 min", "setting": "[3]; read-out: Unbound [plasma]", "value": 29.3, "unit": "µM"}, {"measurement": "concentration at 10 min", "setting": "[3]; 30 mg/kg, read-out: Total [plasma]", "value": 91.4, "unit": "µM"}, {"measurement": "concentration at 10 min", "setting": "[3]; 30 mg/kg, read-out: Unbound [plasma]", "value": 43.5, "unit": "µM"}, {"measurement": "Total [plasma]", "setting": "[3]; 30 mg/kg, 25–33 min", "value": "108.234 ± 9.606", "unit": "µM"}, {"measurement": "Unbound [plasma]", "setting": "[3]; 30 mg/kg, 25–33 min", "value": "51.46 ± 4.56", "unit": "µM"}, {"measurement": "IC50", "setting": "[1]; Rattus norvegicus, relative to 3 μM d-Tubocurarine relaxation = 100%", "value": 8.9, "unit": "µM"}, {"measurement": "percent decrease in the magnitude of the phrenic nerve signal", "setting": "phrenic nerve", "value": 50, "unit": "%"}, {"measurement": "concentration at 15 min", "setting": "[4]; 10 mg/kg, 10 mg/kg, read-out: Total [plasma]", "value": 31.5, "unit": "µM"}, {"measurement": "concentration at 15 min", "setting": "[4]; 10 mg/kg, 10 mg/kg, read-out: Unbound [plasma]", "value": 15, "unit": "µM"}, {"measurement": "concentration at 15 min", "setting": "[4]; [5]", "value": 11.4, "unit": "µM"}, {"measurement": "concentration at 15 min", "setting": "[4]; [6]", "value": 5.4, "unit": "µM"}, {"measurement": "concentration at 30 min", "setting": "[4]; [5]", "value": 17.6, "unit": "µM"}, {"measurement": "concentration at 30 min", "setting": "[4]; [6]", "value": 8.4, "unit": "µM"}, {"measurement": "Total [plasma]", "setting": "[4]; 10 mg/kg, 25 min, just prior to death", "value": 39.3, "unit": "a μM"}, {"measurement": "Total [plasma]", "setting": "[4]; [7]", "value": 89.7, "unit": "a μM"}, {"measurement": "Unbound [plasma]", "setting": "[4]; [7]", "value": 42.7, "unit": "a μM"}]}
